Results: patent EP0745595A1, “3-(3-Aryloxyphenyl)-1-(substituted methyl)-s-triazine-2,4,6-oxo or thiotrione herbicidal agents” (American Cyanamid Company, priority 1995, dated 1996)

What was measured:
Type in all cases: in vivo
[1] = tested on: ABUTILON THEOPHRASTI, MEDIC.; assay: Postemergence herbicidal evaluation, ABUTH (Velvetleaf);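 also: higher means more injury with 8 approaching complete kill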
How it was run: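 This postemergence herbicide test used two-week-old velvetleaf seedlings grown in jiffy flats. Each compound was sprayed at 40 psi as a dispersion in 50/50 acetone/water with 0.5% TWEEN®20 surfactant. Plants then received routine greenhouse care. After four to five weeks, injury was scored visually on a 0-9 scale against a control, and replicate tests were averaged.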

[2] = tested on: AMBROSIA ARTEMISIIFOLIA, L.; assay: Postemergence herbicidal evaluation, AMBEL (Ragweed, Common);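 also: higher means more injury with 8 approaching complete kill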
How it was run: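 Postemergence herbicidal activity on AMBEL (common ragweed) was assessed on two-week-old seedlings grown in jiffy flats. Treatment solutions of 50/50 acetone/water with 0.5% TWEEN®20 surfactant were sprayed at 40 psi. After four to five weeks in the greenhouse, plants were scored 0-9 against a control for stand, vigor, malformation, size, chlorosis and overall appearance, with multiple tests averaged.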

CHENOPODIUM ALBUM, L. [3] = assay: Postemergence herbicidal evaluation, CHEAL (Lambsquarters, Common);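 also: higher means more injury with 8 approaching complete kill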
How it was run: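 Postemergence herbicidal activity on Chenopodium album was tested by spraying two-week-old seedlings grown in jiffy flats with compound in acetone/water (50/50) plus 0.5% TWEEN®20, using a 40 psi nozzle. Four to five weeks after treatment, stand, vigor, malformation, size, chlorosis and overall appearance were scored 0-9 relative to controls, with repeat tests averaged.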

IPOMOEA SPP. = assay: Postemergence herbicidal evaluation, IPOSS (Morningglory spp.);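 also: higher means more injury with 8 approaching complete kill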
How it was run: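 In this greenhouse postemergence herbicide test on Ipomoea spp. (morningglory), compounds in 50/50 acetone/water with 0.5% TWEEN®20 were sprayed at 40 psi onto seedlings about two weeks old grown in jiffy flats. After four to five weeks, injury was scored on a 0-9 scale covering stand, vigor, malformation, size, chlorosis and overall appearance versus control, with repeat tests averaged.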

GALIUM APARINE = assay: Postemergence herbicidal evaluation, GALAP (Galium); set-up: key to GALAP rating / Herbicidal effect rating, GALAP / GALAP: 0-9 visual rating scale vs untreated control;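 also: higher means more injury with 8 approaching complete kill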
How it was run: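 In this postemergence greenhouse test, two-week-old Galium aparine seedlings grown in jiffy flats received a 40 psi spray of compound in acetone/water (50/50) with 0.5% TWEEN®20 surfactant. After four to five weeks, stand, vigor, malformation, size, chlorosis and overall appearance were compared with untreated controls on a 0-9 scale, averaging multiple tests.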

[4] = tested on: ECHINOCHLOA CRUS-GALLI, (L) BEAU; assay: Postemergence herbicidal evaluation, ECHCG (Barnyardgrass); set-up: key to ECHCG rating / Herbicidal effect rating, ECHCG / ECHCG: 0-9 visual rating scale vs untreated control
How it was run: (§1)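 Postemergence foliar spray at approximately 0.125–0.500 kg/ha onto two-week seedlings; greenhouse hold, then 0–9 visual injury rating after 4–5 weeks.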

[5] = tested on: SETARIA VIRIDIS, (L) BEAU; assay: Postemergence herbicidal evaluation, SETVI (Foxtail, Green); set-up: key to SETVI rating / Herbicidal effect rating, SETVI / SETVI: 0-9 visual rating scale vs untreated control
How it was run: as §1

[6] = tested on: TRITICUM AESTIVUM, CV. APOLLO; assay: Postemergence herbicidal evaluation, TRZAWO (Wheat, Winter, CV. APOLLO);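 also: higher means more injury with 8 approaching complete kill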
How it was run: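 This greenhouse postemergence test applied compounds to roughly two-week-old wheat seedlings grown in jiffy flats. The spray solution was 50/50 acetone/water with 0.5% TWEEN®20, a polyoxyethylene sorbitan monolaurate, sprayed from a nozzle run at 40 psi. After four to five weeks of standard greenhouse care, injury was scored from 0 to 9 by comparing stand, vigor, malformation, size, chlorosis and overall appearance with a control. Multiple tests were averaged.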

ZEA MAYS L. = assay: Postemergence herbicidal evaluation, ZEAMX (Corn, Field);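 also: higher means more injury with 8 approaching complete kill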
How it was run: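 This greenhouse postemergence test treated corn plants about two weeks old. Compounds in a 50/50 acetone/water mixture with 0.5% TWEEN®20 were applied through a spray nozzle at 40 psi. After four to five weeks, injury was scored 0-9 against an untreated control, judging stand, vigor, malformation, size, chlorosis and overall appearance. Repeated tests were averaged.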

CHENOPODIUM ALBUM, L. [7] = assay: Preemergence herbicidal evaluation, CHEAL (Lambsquarters, Common);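 also: higher means more injury with 8 approaching complete kill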
How it was run: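 Injury scored visually (0–9; stand, vigor, malformation, size, chlorosis) versus untreated control, four to five weeks post-treatment. Application: aqueous acetone spray onto freshly planted soil cups, equivalent to about 0.125 to 0.50 kg/ha, plants then kept under standard greenhouse care.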

[8] = tested on: ORYZA SATIVA, L. TEBONNET; assay: Rice tolerance to post-transplant applications under flooded paddy conditions, ORYSAT (Rice, Tebonnet); conditions: post-transplanted rice
How it was run: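 Greenhouse pots of silt loam, each with two transplanted ten-day-old seedlings, are held under 1.5 to 3 cm of standing water. Three days later the compound is applied to the flooded surface at about 0.5, 0.25, 0.125 or 0.063 kg/ha. Damage is scored visually 0-9 after 3-4 weeks.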

Cn1c(=O)[nH]c(=O)n(-c2cc(Oc3ccc(C(F)(F)F)cc3Cl)ccc2Cl)c1=O [F, reference compound]
ABUTH ([1]; Rate 0.016 kg/ha): 4.0 | ABUTH ([1]; Rate 0.032 kg/ha): 4.0 | ABUTH ([1]; Rate 0.063 kg/ha): 5.0 | ABUTH ([1]; Rate 0.125 kg/ha): 5.0 | ABUTH ([1]; Rate 0.250 kg/ha): 7.0 | ABUTH ([1]; Rate 0.500 kg/ha): 9.0 | AMBEL ([2]; Rate 0.016 kg/ha): 2.0 | AMBEL ([2]; Rate 0.032 kg/ha): 3.0 | AMBEL ([2]; Rate 0.063 kg/ha): 6.0 | AMBEL ([2]; Rate 0.125 kg/ha): 6.0 | AMBEL ([2]; Rate 0.250 kg/ha): 6.0 | AMBEL ([2]; Rate 0.500 kg/ha): 7.0 | CHEAL (CHENOPODIUM ALBUM, L. [3]; Rate 0.016 kg/ha): 4.0 | CHEAL (CHENOPODIUM ALBUM, L. [3]; Rate 0.032 kg/ha): 5.0 | CHEAL (CHENOPODIUM ALBUM, L. [3]; Rate 0.063 kg/ha): 6.0 | CHEAL (CHENOPODIUM ALBUM, L. [3]; Rate 0.125 kg/ha): 8.0 | CHEAL (CHENOPODIUM ALBUM, L. [3]; Rate 0.250 kg/ha): 9.0 | CHEAL (CHENOPODIUM ALBUM, L. [3]; Rate 0.500 kg/ha): 9.0 | IPOSS (IPOMOEA SPP.; Rate 0.016 kg/ha): 3.0 | IPOSS (IPOMOEA SPP.; Rate 0.032 kg/ha): 4.0 | IPOSS (IPOMOEA SPP.; Rate 0.063 kg/ha): 6.0 | IPOSS (IPOMOEA SPP.; Rate 0.125 kg/ha): 5.0 | IPOSS (IPOMOEA SPP.; Rate 0.250 kg/ha): 6.0 | IPOSS (IPOMOEA SPP.; Rate 0.500 kg/ha): 7.0 | GALAP (GALIUM APARINE; Rate 0.016 kg/ha): 5.0 | GALAP (GALIUM APARINE; Rate 0.032 kg/ha): 6.0 | GALAP (GALIUM APARINE; Rate 0.063 kg/ha): 6.0 | GALAP (GALIUM APARINE; Rate 0.125 kg/ha): 6.0 | GALAP (GALIUM APARINE; Rate 0.250 kg/ha): 8.0 | GALAP (GALIUM APARINE; Rate 0.500 kg/ha): 6.0 | ECHCG ([4]; Rate 0.016 kg/ha): 0.0 | ECHCG ([4]; Rate 0.032 kg/ha): 0.0 | ECHCG ([4]; Rate 0.063 kg/ha): 0.0 | ECHCG ([4]; Rate 0.125 kg/ha): 1.0 | ECHCG ([4]; Rate 0.250 kg/ha): 2.0 | ECHCG ([4]; Rate 0.500 kg/ha): 2.0 | SETVI ([5]; Rate 0.016 kg/ha): 0.0 | SETVI ([5]; Rate 0.032 kg/ha): 1.0 | SETVI ([5]; Rate 0.063 kg/ha): 3.0 | SETVI ([5]; Rate 0.125 kg/ha): 2.0 | SETVI ([5]; Rate 0.250 kg/ha): 3.0 | SETVI ([5]; Rate 0.500 kg/ha): 3.0 | TRZAWO ([6]; Rate 0.016 kg/ha): 1.5 | TRZAWO ([6]; Rate 0.032 kg/ha): 1.5 | TRZAWO ([6]; Rate 0.063 kg/ha): 2.5 | TRZAWO ([6]; Rate 0.125 kg/ha): 3.0 | TRZAWO ([6]; Rate 0.250 kg/ha): 3.5 | TRZAWO ([6]; Rate 0.500 kg/ha): 3.5 | ZEAMX (ZEA MAYS L.; Rate 0.016 kg/ha): 1.5 | ZEAMX (ZEA MAYS L.; Rate 0.032 kg/ha): 2.0 | ZEAMX (ZEA MAYS L.; Rate 0.063 kg/ha): 2.5 | ZEAMX (ZEA MAYS L.; Rate 0.125 kg/ha): 3.0 | ZEAMX (ZEA MAYS L.; Rate 0.250 kg/ha): 4.0 | ZEAMX (ZEA MAYS L.; Rate 0.500 kg/ha): 4.0 | CHEAL (CHENOPODIUM ALBUM, L. [7]; Rate 0.063 kg/ha): 9.0 | CHEAL (CHENOPODIUM ALBUM, L. [7]; Rate 0.125 kg/ha): 9.0 | CHEAL (CHENOPODIUM ALBUM, L. [7]; Rate 0.250 kg/ha): 9.0 | CHEAL (CHENOPODIUM ALBUM, L. [7]; Rate 0.500 kg/ha): 9.0 | ORYSAT ([8]; Rate 0.031 kg/ha): 0.0 | ORYSAT ([8]; Rate 0.063 kg/ha): 0.0 | ORYSAT ([8]; Rate 0.125 kg/ha): 1.0 | ORYSAT ([8]; Rate 0.250 kg/ha): 2.0
